Earlier results as cited in patent publication US20170224670A1, “Drug Combination to Treat Melanoma” (Exelixis, Inc., priority 2014, published 2017).

System: BRAF mutation-associated melanomas
Conditions: from initial use, patients taking the drug

## CCCS(=O)(=O)Nc1ccc(F)c(C(=O)c2c[nH]c3ncc(-c4ccc(Cl)cc4)cc23)c1F [vemurafenib]
  Time to development of resistance, on average: ≤ 7 months
